Measurements reported in article PMC5920109, “Identification, Expression, and Regulation of an Omega Class Glutathione S-transferase in Rhopalosiphum padi (L.) (Hemiptera: Aphididae) Under Insecticide Stress” (Frontiers in Physiology, 2018).

Target: T1, RpGSTO1 (Rhopalosiphum padi, UniProt A0A2U9PFG6)
T1 construct: pET-28a His-tag (tag removal not mentioned), E. coli BL21(DE3), BamHI/HindIII
T1 sequence (A0A2U9PFG6 1-239): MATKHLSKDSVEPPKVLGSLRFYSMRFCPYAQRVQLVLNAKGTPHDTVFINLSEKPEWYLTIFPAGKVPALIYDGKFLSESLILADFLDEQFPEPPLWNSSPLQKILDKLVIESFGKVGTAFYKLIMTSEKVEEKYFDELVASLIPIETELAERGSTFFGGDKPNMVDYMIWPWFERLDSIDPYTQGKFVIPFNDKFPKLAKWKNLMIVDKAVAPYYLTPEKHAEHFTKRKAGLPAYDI
Test: spectrophotometric GSH conjugation at […] nm, double reciprocal plot
Format: biochemical
Conditions: 5 mM GSH; 0.02-0.14 mM CDNB; pH 7.0, 0.1 M sodium phosphate

Structure (SMILES): O=[N+]([O-])c1ccc(Cl)c([N+](=O)[O-])c1 [CDNB, 1-chloro-2,4-dinitrobenzene]
- Km: 120 µM
